Calls of active or inactive are those of the source. No cut-off for these calls is given here.
How the values were obtained:
[1] = species on record: Canis lupus familiaris; assay: […] hound bone beams assessed as energy to fracture at 2 uM by 4 point bending analysis relative to control
[2] = species on record: Canis lupus familiaris; assay: Binding affinity to hound bone powder assessed as reduction in bound compound level at 50 uM after 16 hrs by NMR spectroscopic analysis relative to alendronate; design: scale not given: the % may be the effect or the level left
[3] = species on record: Canis lupus familiaris; assay: Binding affinity to hound bone powder assessed as reduction in bound compound level at 50 uM after 16 hrs by NMR spectroscopic analysis relative to control; design: scale not given: the % may be the effect or the level left
[4] = species on record: Canis lupus familiaris; assay: Binding affinity to hound bone powder at 50 uM after 1 to 8 hrs by 1H NMR spectroscopic analysis
[5] = Binding affinity to synthetic ceramic hydroxyapatite type 1 assessed as reduction in bound compound level at 50 uM after 16 hrs by NMR spectroscopic analysis relative to control; design: scale not given: the % may be the effect or the level left
[6] = species on record: Canis lupus familiaris; assay: Binding affinity to hound bone powder assessed as reduction in bound compound level at 50 uM after 1 hr by NMR spectroscopic analysis relative to alendronate; design: scale not given: the % may be the effect or the level left
[7] = Binding affinity to synthetic ceramic hydroxyapatite type 1 assessed as reduction in bound compound level at 50 uM after 16 hrs by NMR spectroscopic analysis relative to alendronate; design: scale not given: the % may be the effect or the level left
[8] = Binding affinity to synthetic ceramic hydroxyapatite type 1 assessed as reduction in bound compound level at 50 uM after 1 hr by NMR spectroscopic analysis relative to control; design: scale not given: the % may be the effect or the level left
[9] = molecular target: Collagen alpha-1(I) chain (Canis lupus familiaris) (UniProt Q9XSJ7); assay: Binding affinity to hound collagen 1a1 (unknown origin) at 50 uM after 1 8 hrs by 1H NMR spectroscopic analysis
[10] = species on record: Canis lupus familiaris; assay: Binding affinity to hound bone powder assessed as reduction in bound compound level at 50 uM after 1 hr by NMR spectroscopic analysis relative to control; design: scale not given: the % may be the effect or the level left
[11] = Binding affinity to synthetic ceramic hydroxyapatite type 1 assessed as reduction in bound compound level at 50 uM after 1 hr by NMR spectroscopic analysis relative to alendronate; design: scale not given: the % may be the effect or the level left
[12] = molecular target: Estrogen receptor beta (Homo sapiens, UniProt Q92731); assay: Binding affinity to ERbeta (unknown origin)
[13] = molecular target: T1, Estrogen receptor (Homo sapiens, UniProt P03372); assay: Binding affinity to ERalpha (unknown origin)
T1 sequence (P03372 whole entry): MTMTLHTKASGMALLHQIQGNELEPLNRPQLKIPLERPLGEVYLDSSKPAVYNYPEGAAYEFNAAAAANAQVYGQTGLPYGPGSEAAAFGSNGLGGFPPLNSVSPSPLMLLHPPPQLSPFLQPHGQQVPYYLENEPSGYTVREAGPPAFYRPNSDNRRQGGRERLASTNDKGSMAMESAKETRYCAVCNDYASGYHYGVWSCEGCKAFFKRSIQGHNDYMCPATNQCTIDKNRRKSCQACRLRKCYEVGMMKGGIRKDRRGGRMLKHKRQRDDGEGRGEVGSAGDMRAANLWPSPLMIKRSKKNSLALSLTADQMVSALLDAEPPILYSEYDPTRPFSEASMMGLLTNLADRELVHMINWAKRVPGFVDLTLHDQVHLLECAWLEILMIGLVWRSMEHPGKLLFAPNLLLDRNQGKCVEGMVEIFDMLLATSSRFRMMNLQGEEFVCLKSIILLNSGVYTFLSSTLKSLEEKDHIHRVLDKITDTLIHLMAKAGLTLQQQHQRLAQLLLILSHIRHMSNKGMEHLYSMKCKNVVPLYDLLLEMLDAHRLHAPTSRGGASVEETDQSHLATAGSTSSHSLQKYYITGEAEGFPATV

[14] = species on record: Canis lupus familiaris; assay: Binding affinity to hound bone powder assessed as change in vibration bands at 20 to 50 uM after 1 hr by FTIR analysis

Collagen alpha-1(I) chain (Canis lupus familiaris), sequence (Q9XSJ7 whole entry): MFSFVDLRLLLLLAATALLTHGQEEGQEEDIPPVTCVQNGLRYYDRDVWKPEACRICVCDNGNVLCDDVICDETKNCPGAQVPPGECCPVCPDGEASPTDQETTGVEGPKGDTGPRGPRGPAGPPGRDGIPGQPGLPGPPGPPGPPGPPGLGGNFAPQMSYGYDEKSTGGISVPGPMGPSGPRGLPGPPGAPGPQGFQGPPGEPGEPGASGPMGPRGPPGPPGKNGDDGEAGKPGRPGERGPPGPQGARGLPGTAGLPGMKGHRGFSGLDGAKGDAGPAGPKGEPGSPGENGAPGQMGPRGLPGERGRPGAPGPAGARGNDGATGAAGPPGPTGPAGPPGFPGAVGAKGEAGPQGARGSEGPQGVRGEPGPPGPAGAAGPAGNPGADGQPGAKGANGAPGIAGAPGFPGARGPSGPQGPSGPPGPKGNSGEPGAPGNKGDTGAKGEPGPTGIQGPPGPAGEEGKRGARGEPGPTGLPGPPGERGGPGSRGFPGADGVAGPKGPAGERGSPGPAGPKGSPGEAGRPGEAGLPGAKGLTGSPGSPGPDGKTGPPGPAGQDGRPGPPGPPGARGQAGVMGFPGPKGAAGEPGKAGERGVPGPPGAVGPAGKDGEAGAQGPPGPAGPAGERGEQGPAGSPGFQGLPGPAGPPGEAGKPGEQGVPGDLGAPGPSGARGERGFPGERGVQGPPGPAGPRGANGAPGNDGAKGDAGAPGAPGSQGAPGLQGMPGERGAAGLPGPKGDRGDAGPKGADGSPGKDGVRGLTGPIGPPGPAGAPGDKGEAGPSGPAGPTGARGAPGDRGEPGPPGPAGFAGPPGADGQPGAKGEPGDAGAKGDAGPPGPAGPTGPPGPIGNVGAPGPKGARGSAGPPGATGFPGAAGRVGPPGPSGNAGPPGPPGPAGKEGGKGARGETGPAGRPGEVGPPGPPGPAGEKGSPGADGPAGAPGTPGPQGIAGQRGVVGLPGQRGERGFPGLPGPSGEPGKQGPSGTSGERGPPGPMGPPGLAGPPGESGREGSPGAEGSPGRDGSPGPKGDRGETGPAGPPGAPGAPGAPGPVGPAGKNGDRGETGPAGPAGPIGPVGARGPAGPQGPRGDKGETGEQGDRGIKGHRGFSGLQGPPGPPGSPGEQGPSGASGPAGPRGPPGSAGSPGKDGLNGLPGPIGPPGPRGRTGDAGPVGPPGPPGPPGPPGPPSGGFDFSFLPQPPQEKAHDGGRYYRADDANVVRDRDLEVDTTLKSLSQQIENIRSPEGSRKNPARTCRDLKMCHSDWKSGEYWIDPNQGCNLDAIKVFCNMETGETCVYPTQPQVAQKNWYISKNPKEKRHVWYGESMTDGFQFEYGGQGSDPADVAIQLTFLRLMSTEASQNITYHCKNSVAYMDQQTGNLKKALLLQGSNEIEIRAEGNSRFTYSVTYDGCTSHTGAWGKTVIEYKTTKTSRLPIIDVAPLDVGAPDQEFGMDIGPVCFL
Estrogen receptor beta, sequence (Q92731 whole entry): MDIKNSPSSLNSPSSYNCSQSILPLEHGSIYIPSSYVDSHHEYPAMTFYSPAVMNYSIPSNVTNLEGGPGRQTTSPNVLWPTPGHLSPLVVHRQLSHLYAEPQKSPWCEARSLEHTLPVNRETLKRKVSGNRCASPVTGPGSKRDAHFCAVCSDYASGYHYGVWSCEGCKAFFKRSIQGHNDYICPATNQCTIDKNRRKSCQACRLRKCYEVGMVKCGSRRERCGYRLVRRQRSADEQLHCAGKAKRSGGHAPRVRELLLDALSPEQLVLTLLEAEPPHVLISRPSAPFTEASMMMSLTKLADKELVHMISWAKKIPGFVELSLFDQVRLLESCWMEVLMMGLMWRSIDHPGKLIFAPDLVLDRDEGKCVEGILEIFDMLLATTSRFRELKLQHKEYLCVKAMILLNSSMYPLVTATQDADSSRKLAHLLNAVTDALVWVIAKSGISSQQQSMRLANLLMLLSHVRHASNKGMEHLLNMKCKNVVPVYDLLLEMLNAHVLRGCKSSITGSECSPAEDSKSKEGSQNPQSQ

**Q.** Which Activity [1] does the source give for `COc1ccc2c(C(=O)c3ccc(OCCN4CCCCC4)cc3)c(-c3ccc(O)cc3)sc2c1` here?
**A.** 25%

**Q.** And the Activity [2]?
**A.** 77.4%

**Q.** What about the Activity [3] of the same compound?
**A.** 73.9%

**Q.** What about the Activity [4] of the same compound?
**A.** Active

**Q.** And the Activity [5]?
**A.** -286%

**Q.** What about the Activity [6] of the same compound?
**A.** 21%

**Q.** What about the Activity [7] of the same compound?
**A.** -287%

**Q.** What about the Activity [8] of the same compound?
**A.** -57.9%

**Q.** And the Activity [9]?
**A.** Active

**Q.** And the Activity [10]?
**A.** 21%

**Q.** And the Activity [11]?
**A.** -57.9%

**Q.** Which results are given for `O=C(c1ccc(OCCN2CCCCC2)cc1)c1c(-c2ccccc2)sc2ccccc12`?
**A.** Ki [12]: > 10 µM; Activity [2]: 93.1%; Activity [3]: 89%; Activity [5]: -237%; Activity [6]: -132%; Activity [7]: -238%; Activity [8]: -422%; Ki [13]: > 10 µM; Activity [10]: -132%; Activity [11]: -422%

**Q.** What does the source list for `NCCCC(O)(P(=O)(O)O)P(=O)(O)O`?
**A.** Activity [3]: 95.6%; Activity [5]: 99.7%; Activity [8]: 100%; Activity [10]: 41.1%

**Q.** With `C[C@]12CC[C@@H]3c4ccc(O)cc4CC[C@H]3[C@@H]1CC[C@@H]2O` as the compound, how does the Activity [2] read?
**A.** 77.4%

**Q.** What about the Activity [3] of the same compound?
**A.** 73.9%

**Q.** What about the Activity [5] of the same compound?
**A.** 73%

**Q.** What about the Activity [6] of the same compound?
**A.** 5.3%

**Q.** And the Activity [7]?
**A.** 73.2%

**Q.** What about the Activity [8] of the same compound?
**A.** 57.1%

**Q.** And the Activity [10]?
**A.** 5.3%

**Q.** What about the Activity [11] of the same compound?
**A.** 57.1%

**Q.** With `Oc1ccc(-c2cc3ccc(O)cc3s2)cc1` [RALOXIFENE CORE] as the compound, how does the Activity [1] read?
**A.** -75%

**Q.** What about the Ki [12] of the same compound?
**A.** 0.0023 µM

**Q.** What about the Activity [2] of the same compound?
**A.** 48.6%

**Q.** And the Activity [3]?
**A.** 46.4%

**Q.** And the Activity [5]?
**A.** 11.7%

**Q.** What about the Activity [6] of the same compound?
**A.** 42.8%

**Q.** And the Activity [7]?
**A.** 11.7%

**Q.** And the Activity [8]?
**A.** 22.3%

**Q.** What about the Activity [10] of the same compound?
**A.** 42.8%

**Q.** And the Activity [11]?
**A.** 22.3%

**Q.** Which results are given for `O=C(c1ccc(O)cc1)c1c(-c2ccc(O)cc2)sc2cc(O)ccc12`?
**A.** Activity [1]: -36%; Activity [2]: 35.6%; Activity [3]: 34.1%; Activity [4]: Active; Activity [5]: 15.1%; Activity [6]: 26.4%; Activity [7]: 15.1%; Activity [8]: 13.3%; Activity [9]: Active; Activity [10]: 26.4%; Activity [11]: 13.3%

**Q.** With `O=C(c1ccc(OCCN2CCCCC2)cc1)c1c(-c2ccc(O)cc2)sc2cc(O)ccc12` as the compound, how does the Activity [1] read?
**A.** 16%

**Q.** And the Activity [2]?
**A.** 104%

**Q.** And the Activity [3]?
**A.** 99%

**Q.** And the Activity [4]?
**A.** Active

**Q.** What about the Activity [14] of the same compound?
**A.** Active

**Q.** What about the Activity [5] of the same compound?
**A.** -206%

**Q.** What about the Activity [6] of the same compound?
**A.** 54.2%

**Q.** And the Activity [7]?
**A.** -207%

**Q.** What about the Activity [8] of the same compound?
**A.** -232%

**Q.** What about the Activity [9] of the same compound?
**A.** Active

**Q.** What about the Activity [10] of the same compound?
**A.** 54.2%

**Q.** What about the Activity [11] of the same compound?
**A.** -232%

**Q.** Which Activity [2] does the source give for `COc1ccc(Nc2nc(NCc3ccco3)nc(N/N=C(\C)c3ccc(NC(C)=O)cc3)n2)cc1` here?
**A.** -0.5%

**Q.** What about the Activity [3] of the same compound?
**A.** -0.5%

**Q.** And the Activity [5]?
**A.** 4.1%

**Q.** What about the Activity [6] of the same compound?
**A.** 0.3%

**Q.** And the Activity [7]?
**A.** 4.1%

**Q.** And the Activity [8]?
**A.** 3.9%

**Q.** And the Activity [10]?
**A.** 0.3%

**Q.** And the Activity [11]?
**A.** 3.9%

Source: ChEMBL document CHEMBL3751680 (Bioorg Med Chem, 2016)
